Drawing on DBAASP, this text covers MIC for six compounds.

What is called MIC is the lowest concentration that inhibits growth of the organism. The low end stands for inhibition by little substance, the high end for a need for much substance.

SMILES strings stand for the structures. In brackets after ≈: the same amount, converted by molar mass.

What all share (assay): ≥ marks a high value that may be exact or a test limit, other limits are often not marked, values filed in µg/mL are converted to µM
Experiment [1] deals with Candida albicans IHEM 8060.
Experiment [2] concerns Candida glabrata.
For experiment [3], the system named is Bacillus licheniformis X39.
Experiment [4] concerns Psychrobacter faecalis X29.
The test system of experiment [5] is Rhodococcus rhodochrous X15.
The subject of experiment [6] is Staphylococcus aureus ATCC 2592.
Experiment [7] concerns Staphylococcus carnosus KHS.
The subject of experiment [8] is Acinetobacter baumannii.
The subject of experiment [9] is Bacillus cereus ATCC 11778.
The subject of experiment [10] is Enterococcus faecalis ATCC 29212.
Experiment [11] relates to Escherichia coli ATCC 25922.
For experiment [12], the system named is Escherichia coli O157:H7.
For experiment [13], the system named is Listeria monocytogenes 10403s.
The subject of experiment [14] is Pseudomonas aeruginosa 1.
Experiment [15] relates to Pseudomonas aeruginosa.
Experiment [16] has as its system Salmonella enterica subsp. enterica serovar Typhimurium ATCC 13311.
The subject of experiment [17] is Shigella sonnei ATCC 11060.
The subject of experiment [18] is Staphylococcus aureus ATCC 25923.
Experiment [19] deals with Staphylococcus epidermidis ATCC 12228.
Experiment [20] relates to Vibrio cholerae O1 Inaba.
Experiment [21] concerns Staphylococcus aureus 1056.
For experiment [22], the system named is Candida albicans ATCC 10231.
Experiment [23] has as its system Klebsiella aerogenes ATCC 13048.
Experiment [24] has as its system Staphylococcus aureus ATCC 29231.
Experiment [25] concerns Staphylococcus aureus MW2.
Experiment [26] has as its system Bacillus subtilis IFO 3336.
Experiment [27] relates to Escherichia coli IFO 3301.

`CC[C@H](C)[C@@H]1NC(=O)[C@@H](N)CSSC[C@@H]2NC(=O)[C@@H]3CSSC[C@@H](C(=O)N[C@@H](CCCN=C(N)N)C(=O)O)NC(=O)[C@H](Cc4ccc(O)cc4)NC(=O)CNC(=O)[C@H](C)NC(=O)[C@H](C(C)C)NC(=O)[C@H](Cc4c[nH]c5ccccc45)NC(=O)CNC(=O)[C@@H]4CCCN4C(=O)[C@H](CCC(=O)O)NC(=O)[C@H](CCCCN)NC(=O)[C@H](Cc4cnc[nH]4)NC(=O)[C@H](CSSC[C@H](NC(=O)CNC(=O)[C@H](CC(N)=O)NC(=O)CNC(=O)[C@H](CC(N)=O)NC(=O)[C@H](CCCCN)NC1=O)C(=O)N[C@@H](CCC(N)=O)C(=O)N1CCC[C@H]1C(=O)N[C@@H](CC(=O)O)C(=O)NCC(=O)N[C@@H](CO)C(=O)N[C@@H](CCC(N)=O)C(=O)NCC(=O)N[C@@H](CC(N)=O)C(=O)N3)NC(=O)[C@H](Cc1ccc(O)cc1)NC(=O)[C@H](CCCN=C(N)N)NC(=O)[C@H](CO)NC2=O` [CIKNGNGCQPDGSQGNCCSRYCHKEPGWVAGYCR]: the MIC in [1] and in experiment [2] was 17.3 µM (≈ 63.9 µg/mL) in each case.

`CC[C@H](C)[C@@H]1NC(=O)[C@H](CCCCN)NC(=O)[C@@H](NC(=O)[C@H](Cc2ccccc2)NC(=O)[C@H](CC(C)C)NC(=O)[C@@H](NC(=O)[C@@H]2CCCN2C(=O)[C@@H](NC(=O)[C@@H](NC(=O)[C@H](CCCCN)NC(=O)CNC(=O)[C@@H](NC(=O)[C@H](CC(C)C)NC(=O)CNC(=O)[C@H](CC(C)C)NC(=O)[C@H](CC(C)C)NC(=O)[C@H](CO)NC(=O)CNC(=O)[C@H](CC(C)C)NC(=O)[C@@H](N)Cc2ccccc2)C(C)C)C(C)C)C(C)C)[C@@H](C)O)CSSC[C@@H](C(=O)O)NC(=O)[C@H](CCCCN)NC(=O)[C@H](CCCCN)NC(=O)[C@H](CO)NC1=O` [FLGSLLGLVGKVVPTLFCKISKKC]: the MIC in experiment [3] was 9.8 µM (≈ 25 µg/mL); in experiment [4], 4.9 µM (≈ 12.5 µg/mL); in experiment [5], 1.22 µM (≈ 3.1 µg/mL); in [6] it was 1.22 µM (≈ 3.1 µg/mL); in [7], 4.9 µM (≈ 12.5 µg/mL).

In the case of `CC[C@H](C)[C@H](NC(=O)[C@H](CCCN=C(N)N)NC(=O)[C@H](CCCCN)NC(=O)[C@H](C)NC(=O)[C@@H](NC(=O)[C@@H](N)CCCCN)[C@@H](C)CC)C(=O)N[C@@H](Cc1c[nH]c2ccccc12)C(=O)N[C@@H](CCCCN)C(=O)N[C@H](C(=O)N[C@@H](CC(C)C)C(=O)N[C@@H](CCCN=C(N)N)C(=O)N[C@@H](CCCN=C(N)N)C(=O)N[C@@H](CCCN=C(N)N)C(N)=O)[C@@H](C)CC` [KIAKRIWKILRRR], the MIC was found to be 4.5 µM (≈ 7.81 µg/mL) in experiment [8]; 9 µM (≈ 15.6 µg/mL) in experiment [9]; 144 µM (≈ 250 µg/mL) in experiment [10]; 18 µM (≈ 31.2 µg/mL) in [11]; 18 µM (≈ 31.2 µg/mL) in experiment [12]; 2.25 µM (≈ 3.91 µg/mL) in experiment [13]. Moreover, the minimal inhibitory concentration (MIC) in experiment [14] was found to be 2.25 µM (≈ 3.91 µg/mL); in [15], 4.5 µM (≈ 7.81 µg/mL); in [16], 1.12 µM (≈ 1.95 µg/mL); in experiment [17], 2.25 µM (≈ 3.91 µg/mL); in experiment [18] it was 36 µM (≈ 62.5 µg/mL); in experiment [19] it was 2.25 µM (≈ 3.91 µg/mL). In addition, the MIC in experiment [20] was 18 µM (≈ 31.2 µg/mL).

In the case of `CC(C)C[C@@H]1NC(=O)[C@H](Cc2cnc[nH]2)NC(=O)[C@H](C)NC(=O)[C@@H]2CCCN2C(=O)[C@@H]2CSSC[C@@H](C(=O)N[C@@H](CCCCN)C(=O)N[C@@H](Cc3c[nH]c4ccccc34)C(=O)N3CCC[C@H]3C(=O)N[C@@H](Cc3c[nH]c4ccccc34)C(=O)N[C@@H](CC(=O)O)C(=O)N[C@H](C(=O)O)C(C)C)NC(=O)[C@@H]3CSSC[C@H](NC(=O)[C@H](Cc4ccccc4)NC(=O)[C@@H](N)CC(C)C)C(=O)N[C@@H](CCCN=C(N)N)C(=O)N[C@@H](CCCCN)C(=O)NCC(=O)N[C@@H]([C@@H](C)O)C(=O)N[C@@H](CSSC[C@H](NC(=O)[C@H](CO)NC(=O)CNC(=O)[C@H](C(C)C)NC(=O)[C@H](CCCCN)NC(=O)[C@H](C(C)C)NC1=O)C(=O)N[C@@H](Cc1ccccc1)C(=O)NCC(=O)N[C@@H](Cc1ccccc1)C(=O)N[C@@H](CCCN=C(N)N)C(=O)N[C@@H](C)C(=O)N3)C(=O)N[C@@H](Cc1cnc[nH]1)C(=O)N[C@@H](Cc1ccccc1)C(=O)NCC(=O)NCC(=O)N2` [LFCRKGTCHFGGCPAHLVKVGSCFGFRACCKWPWDV], the MIC is 0.321 µM (≈ 1.29 µg/mL) in [12] and 0.291 µM (≈ 1.17 µg/mL) in experiment [21].

Consider `CC[C@H](C)[C@H](NC(=O)[C@H](CCCCN)NC(=O)[C@H](CCCCN)NC(=O)[C@H](CC(C)C)NC(=O)[C@@H](NC(=O)[C@H](CCCCN)NC(=O)[C@H](Cc1c[nH]c2ccccc12)NC(=O)[C@@H](N)CC(C)C)[C@@H](C)CC)C(=O)N[C@@H](Cc1c[nH]c2ccccc12)C(=O)N[C@@H](CCCN=C(N)N)C(=O)N[C@H](C(=O)NCC(=O)N[C@@H](Cc1c[nH]c2ccccc12)C(=O)N[C@@H](CC(N)=O)C(=O)N[C@@H](Cc1c[nH]c2ccccc12)C(=O)N[C@@H](CCCN=C(N)N)C(=O)O)C(C)C` [LWKILKKIWRVGWNWR], for which the MIC in [22] was 29.3 µM (≈ 64 µg/mL); in experiment [23] it was at least 58.6 µM; in experiment [24] it was 7.33 µM (≈ 16 µg/mL); in experiment [25], 14.7 µM (≈ 32 µg/mL).

As to `NC(N)=NCCC[C@H](NC(=O)[C@H](CS)NC(=O)[C@H](CCCN=C(N)N)NC(=O)[C@H](CS)NC(=O)[C@H](CCCN=C(N)N)NC(=O)[C@H](CS)NC(=O)[C@H](CCCN=C(N)N)NC(=O)[C@H](CS)NC(=O)[C@@H](N)CCCN=C(N)N)C(=O)N[C@@H](CS)C(=O)O` [RCRCRCRCRC], the MIC in experiment [26] was determined as 7.61 µM (≈ 10 µg/mL); in experiment [27] it was 15.2 µM (≈ 20 µg/mL).
